Reference: patent US4414207A, “Rutin poly(H-)sulfate salts and related compounds” (American Cyanamid Company, priority 1982, dated 1983)

What was measured:
[1] = tested on: shunt pathway activated by cobra venom factor; assay: Test Code 036 (C-Shunt inhibitor); type: cell-based; details: fragile human erythrocytes in autologous serum
From the text: (§1) An active inhibitor protects C2 from C1 and C4; (ii) Test Code 035 (C3-C9 inhibitor)--This test determines the ability of the late components of human complement (C3-C9) to lyse EAC 142 in the presence of appropriate dilutions of the test compound. An active inhibitor protects EAC 142 from lysis by human C3-C9; (iii) Test Code 036 (C-Shunt inhibitor)--In this test human erythrocytes rendered fragile are lysed in autologous serum via the shunt pathway activated by cobra venom factor in the presence of appropriate dilutions of the test compound. Inhibition of the shunt pathway results in failure of lysis; (iv) Forssman Vasculitis Test--Here, the well known complement dependent lesions, Forssman vasculitis, is produced in guinea pigs by intradermal injection of rabbit anti-Forssman antiserum. The lesion is measured in terms of diameter, edema and hemorrhage and the extent to which a combined index of these is inhibited by prior intraperitoneal injection of the test compound at 200 mg/kg is then reported, unless otherwise stated; (v) Forssman Shock Test--Lethal shock is produced in guinea pigs by an i.v. injection of anti-Forssman antiserum and the harmonic mean death time of treated guinea pigs is compared with that of simultaneous controls; (vi) Complement Level Reduction Test--In this test, the above dosed guinea pigs, or others, are bled for serum and the complement level is determined in undiluted serum by the capillary tube method of U.S. Pat. No. 3,876,376 and compared to undosed control guinea pigs; and (vii) Cap 50 Test--Here, appropriate amounts of the test compound are added to a pool of guinea pig serum in vitro, after which the undiluted serum capillary tube assay referred to above is run. The concentration of compound inhibiting 50% is reported, (viii) Guinea Pig Intraperitoneal Test (GPIP)--Guinea Pigs weighing about 300 g. are dosed intraperitoneally (i.p.) with 200 mg/kg of the test compound dissolved in saline and adjusted to pH 7-8. […] Percent inhibition are calculated by comparison with simultaneous controls. […]

[2] = tested on: late components of human complement (C3-C9); assay: Test Code 035 (C3-C9 inhibitor); type: biochemical; details: lysis of EAC 142 by human C3-C9
From the text: as §1

[3] = molecular target: T1, activated human C1 (Homo sapiens, UniProt P09871); assay: Test Code 026 (C1 inhibitor); type: biochemical; details: serial dilution assay, twofold dilutions; higher well number indicates higher activity
T1 sequence (P09871 438-688 limits assumed): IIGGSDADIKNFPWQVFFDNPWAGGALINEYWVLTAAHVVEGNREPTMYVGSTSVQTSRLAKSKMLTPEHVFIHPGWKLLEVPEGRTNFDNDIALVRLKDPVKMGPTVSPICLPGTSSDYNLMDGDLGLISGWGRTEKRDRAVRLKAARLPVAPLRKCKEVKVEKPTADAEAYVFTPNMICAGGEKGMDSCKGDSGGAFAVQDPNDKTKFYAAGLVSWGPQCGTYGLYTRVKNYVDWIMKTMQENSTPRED
T1 sequence (P09871 16-437 limits assumed): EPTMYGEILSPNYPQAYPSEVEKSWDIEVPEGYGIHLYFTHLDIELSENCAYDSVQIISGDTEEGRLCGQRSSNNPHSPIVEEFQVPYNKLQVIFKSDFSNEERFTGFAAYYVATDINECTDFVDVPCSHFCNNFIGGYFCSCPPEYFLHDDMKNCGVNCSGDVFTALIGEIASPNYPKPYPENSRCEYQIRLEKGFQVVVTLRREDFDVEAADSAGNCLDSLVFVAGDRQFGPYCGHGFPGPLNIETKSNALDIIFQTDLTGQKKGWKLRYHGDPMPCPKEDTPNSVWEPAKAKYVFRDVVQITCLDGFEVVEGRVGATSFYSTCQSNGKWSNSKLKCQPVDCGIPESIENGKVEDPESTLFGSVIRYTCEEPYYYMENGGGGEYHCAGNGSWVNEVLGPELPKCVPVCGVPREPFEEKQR
From the text: as §1

[4] = tested on: guinea pigs; assay: Forssman Shock Test; type: in vivo, guinea pig; details: i.v. anti-Forssman antiserum, Control 3.3
From the text: (§2) An active inhibitor protects C2 from C1 and C4; (ii) Test Code 035 (C3-C9 inhibitor)--This test determines the ability of the late components of human complement (C3-C9) to lyse EAC 142 in the presence of appropriate dilutions of the test compound. An active inhibitor protects EAC 142 from lysis by human C3-C9; (iii) Test Code 036 (C-Shunt inhibitor)--In this test human erythrocytes rendered fragile are lysed in autologous serum via the shunt pathway activated by cobra venom factor in the presence of appropriate dilutions of the test compound. Inhibition of the shunt pathway results in failure of lysis; (iv) Forssman Vasculitis Test--Here, the well known complement dependent lesions, Forssman vasculitis, is produced in guinea pigs by intradermal injection of rabbit anti-Forssman antiserum. […] Percent inhibition are calculated by comparison with simultaneous controls. […]

[5] = tested on: complement activity of sera; assay: Guinea Pig Intraperitoneal Test (GPIP); type: in vivo; details: 200 mg/kg i.p.
From the text: as §1

[6] = tested on: complement; assay: complement inhibiting activity using the tests disclosed herein; details: stated in words
From the text: as §2

Molecule | 036 (C-Shunt inhibitor) [1] | 035 (C3-C9 inhibitor) [2] | 026 (C1 inhibitor), activity in wells [3] | Forssman Shock (harmonic mean death time) [4] [min] | In vivo activity (Guinea Pig) Intraperitoneal % Inhibition, 30 minutes ([5]; serum complement 30 minutes after injection) [%] | In vivo activity (Guinea Pig) Intraperitoneal % Inhibition, 60 minutes ([5]; serum complement 60 minutes after injection) [%] | In vivo activity (Guinea Pig) Intraperitoneal % Inhibition, 120 minutes ([5]; serum complement 120 minutes after injection) [%] | complement inhibiting activity [6]
C[C@@H]1O[C@@H](OC[C@H]2O[C@@H](Oc3c(-c4ccc(O)c(O)c4)oc4cc(O)cc(O)c4c3=O)[C@H](O)[C@@H](O)[C@@H]2O)[C@H](O)[C@H](O)[C@H]1O [Rutin] | N | N | N |  |  |  |  | 
Rutin poly(H-)sulfate, sodium salt | N | N | +7 wells | 17.2 | -79 | -89 | -89 | 
Rutin poly(H-)sulfate, sodium salt (original source commercial `Rutin water soluble`) |  |  |  |  |  |  |  | highly active
Rutin poly(H-)sulfate, trimethylamine salt | N | N | +2 wells |  |  |  |  | 
